≈ marks a conversion by molar mass, not a printed value. Where two headings read alike, the source gives them in different places. Peptide text beside a SMILES is read from it.

Holding throughout (format): cell-based
One experiment has as its system S. Aureus. As to the kind of experiment: microbe, parasite or virus in culture. As to the method: (§1) Broth dilution method was used to measure quantitatively the in vitro activity of an antimicrobial agent against a given bacterial isolate. First, a series of tubes/wells were prepared with a broth medium to which various concentrations of the antimicrobial agents were added. The tubes/wells were then inoculated with standardized suspension of the test organism. After overnight incubation at 35±2° C., the tests were examined and the minimum inhibitory concentration (MIC) was determined. The procedures were performed under aseptic conditions. Stock culture: Stock cultures were maintained in Mueller Hinton Broth containing 15% Glycerol and stored at −80° C. Stock cultures were sub-cultured on to Mueller Hinton Agar (MHA), and incubated overnight at 37° C. […] Washing of cells: the cells were washed with PBS (pH 7.1) by centrifuging at 3000 rpm for 10 minutes. A cell suspension in Mueller Hinton broth (MHB) having a turbidity equivalent to a 0.5 McFarland turbidity standard was prepared using a Beckman Coulter DU 800 Spectrophotometer measuring at 600 nm wavelength. This is a suspension containing approximately […] of microbe. The suspension was diluted in MH broth so that, after dilution, the tube contained approximately 5×10^6 CFU/mL, and after inoculation, each well contains approximately 5×10^5 CFU/mL. Broth dilution procedure: small volumes of MH broth dispensed in sterile, polystyrene, non-pyrogenic tissue culture plates, 96 well, flat bottoms with low evaporation lid were prepared (each well contained 0.1 mL of MH broth) followed by the final two fold dilutions of antimicrobial agent dispensed volumetrically into the broth. […] Inoculation: each well of a microdilution plate was inoculated. The purity of the inoculum suspension was checked by sub-culturing an aliquot on to MH agar plate. Colony counts on inoculum suspensions were performed periodically, to ensure that the final inoculum concentration was approximately […]. […] To prevent drying, each plate was sealed with parafilm and the plates were kept in a moist chamber while incubating at 37° C. overnight, in a shaking incubator. Determining MIC endpoints: The MIC is defined as the lowest concentration of an antimicrobial that will inhibit growth of a microorganism. The in plate dilution method the endpoint is detected by the unaided eye.

Another experiment has as its system P. Auregenosa. Description: organism not typed. As for the experimental part:
as §1

A further experiment has as its system E. coli. Description: microbe, parasite or virus in culture. As for the experimental part:
as §1

The subject of a further experiment is C. Albicans. Description: Broth dilution MIC against C. Albicans. As to conditions: Candida albicans, Monotherapy, overnight incubation. As for the experimental part:
Broth dilution method was used to measure quantitatively the in vitro activity of an antimicrobial agent against a given bacterial isolate. First, a series of tubes/wells were prepared with a broth medium to which various concentrations of the antimicrobial agents were added. The tubes/wells were then inoculated with standardized suspension of the test organism. After overnight incubation at 35±2° C., the tests were examined and the minimum inhibitory concentration (MIC) was determined. The procedures were performed under aseptic conditions. Stock culture: Stock cultures were maintained in Mueller Hinton Broth containing 15% Glycerol and stored at −80° C. Stock cultures were sub-cultured on to Mueller Hinton Agar (MHA), and incubated overnight at 37° C. […] Washing of cells: the cells were washed with PBS (pH 7.1) by centrifuging at 3000 rpm for 10 minutes. A cell suspension in Mueller Hinton broth (MHB) having a turbidity equivalent to a 0.5 McFarland turbidity standard was prepared using a Beckman Coulter DU 800 Spectrophotometer measuring at 600 nm wavelength. This is a suspension containing approximately […] of microbe. The suspension was diluted in MH broth so that, after dilution, the tube contained approximately 5×10^6 CFU/mL, and after inoculation, each well contains approximately 5×10^5 CFU/mL. Broth dilution procedure: small volumes of MH broth dispensed in sterile, polystyrene, non-pyrogenic tissue culture plates, 96 well, flat bottoms with low evaporation lid were prepared (each well contained 0.1 mL of MH broth) followed by the final two fold dilutions of antimicrobial agent dispensed volumetrically into the broth. […] Inoculation: each well of a microdilution plate was inoculated. The purity of the inoculum suspension was checked by sub-culturing an aliquot on to MH agar plate. Colony counts on inoculum suspensions were performed periodically, to ensure that the final inoculum concentration was approximately 5×10^6 CFU/mL. […] The in plate dilution method the endpoint is detected by the unaided eye.
A general note: Dilution methods test growth across graded concentrations, often in twofold steps.

Where [1] appears, read: Staphylococcus aureus, Monotherapy, S. Aureus, broth dilution, overnight incubation, read-out: MIC.
Setting [2] is: Monotherapy, P. Auregenosa, broth dilution, overnight incubation, read-out: MIC.
Where [3] appears, read: Escherichia coli, Monotherapy, E. coli, broth dilution, overnight incubation, read-out: MIC.
The mark [4] stands for this setting: Monotherapy, E. coli, broth dilution, overnight incubation.
[5] abbreviates: Monotherapy, P. Auregenosa, broth dilution, overnight incubation.

Take `CC1(C)S[C@@H]2[C@H](NC(=O)[C@H](N)c3ccc(O)cc3)C(=O)N2[C@H]1C(=O)O` [Amoxicillin]: the MIC was 31.2 to 62.5 µg/mL (≈ 85.5 to 171 µM) with S. Aureus (setting [1]) and 250 to 500 µg/mL (≈ 684 to 1370 µM) with P. Auregenosa (setting [2]).
Regarding `C[C@H]1[C@H](NC(=O)/C(=N\OC(C)(C)C(=O)O)c2csc(N)n2)C(=O)N1S(=O)(=O)O` [Aztreonam], the results for the MIC in the experiment with E. coli (setting [3]), with S. Aureus (setting [1]) and in the experiment with P. Auregenosa (setting [2]) were 0.078 to 0.097 µg/mL (≈ 0.179 to 0.223 µM), 625 to 1250 µg/mL (≈ 1440 to 2870 µM) and 15.6 to 19 µg/mL (≈ 35.9 to 43.6 µM), respectively.
For the compound `CC[C@H](C)[C@H](N)C1=N[C@H](C(=O)N[C@@H](CC(C)C)C(=O)N[C@H](CCC(=O)O)C(=O)N[C@H](C(=O)N[C@H]2CCCCNC(=O)[C@H](CC(N)=O)NC(=O)[C@@H](CC(=O)O)NC(=O)[C@H](Cc3cnc[nH]3)NC(=O)[C@@H](Cc3ccccc3)NC(=O)[C@H]([C@@H](C)CC)NC(=O)[C@@H](CCCN)NC2=O)[C@@H](C)CC)CS1` [Bacitracin] (HELM PEPTIDE1{[CC[C@H](C)[C@H](N)C1=N[C@H](C(=O)[*:2])CS1].L.[dE].I.K.[NCCC[C@@H](N[*:1])C(=O)[*:2]].I.[dF].H.[dD].N}$PEPTIDE1,PEPTIDE1,5:R3-11:R2$$$V2.0), the figures for the MIC with E. coli, with S. Aureus and in the experiment on P. Auregenosa were 1000 to 1250 µg/mL, 35 to 40 µg/mL and 4000 to 5000 µg/mL, respectively.
As to `[H]/N=C(\N/C(=N/[H])NCCCCCCNC(=N)NC(=N)Nc1ccc(Cl)cc1)Nc1ccc(Cl)cc1` [Chlorhexidine], the MIC lay in the range of 3.12 to 4 µg/mL (≈ 6.18 to 7.91 µM) with C. Albicans, 3.13 to 4 µg/mL (≈ 6.19 to 7.91 µM) in the experiment on E. coli (setting [3]), 3.12 to 4 µg/mL (≈ 6.18 to 7.91 µM) with S. Aureus (setting [1]) and 4 to 5 µg/mL (≈ 7.91 to 9.89 µM) with P. Auregenosa (setting [2]).
With `O=C(O)c1cn(C2CC2)c2cc(N3CCNCC3)c(F)cc2c1=O` [Ciprofloxacin], the MIC against C. Albicans was over 2.5 µg/mL; with E. coli (setting [3]), 0.005 to 0.0078 µg/mL (≈ 0.0151 to 0.0235 µM); in the experiment on S. Aureus (setting [1]) it was 0.156 to 0.2 µg/mL (≈ 0.471 to 0.604 µM); with P. Auregenosa (setting [2]), 0.156 to 0.25 µg/mL (≈ 0.471 to 0.754 µM).
Turning to `Clc1ccc(COC(Cn2ccnc2)c2ccc(Cl)cc2Cl)c(Cl)c1` (stereo not drawn) [Miconazole], the MIC lay in the range of 1.4 to 2.8 µg/mL (≈ 3.36 to 6.73 µM) in the experiment with C. Albicans and 45 to 90 µg/mL (≈ 108 to 216 µM) with S. Aureus (setting [1]).
In the experiment on E. coli (Escherichia coli), `CN[C@H](CC(C)C)C(=O)N[C@H]1C(=O)N[C@@H](CC(N)=O)C(=O)N[C@H]2C(=O)N[C@H]3C(=O)N[C@H](C(=O)N[C@H](C(=O)O)c4cc(O)cc(O)c4-c4cc3ccc4O)[C@H](O)c3ccc(c(Cl)c3)Oc3cc2cc(c3O[C@@H]2O[C@H](CO)[C@@H](O)[C@H](O)[C@H]2O[C@H]2C[C@](C)(N)[C@H](O)[C@H](C)O2)Oc2ccc(cc2Cl)[C@H]1O` [Vancomycin] came in with an MIC of 190 to 380 µg/mL (≈ 131 to 262 µM).
With Gentamicin, the MIC in the experiment with E. coli (setting [4]) fell in the range of 1.25 to 2.5 µg/mL; in the experiment with P. Auregenosa (setting [5]) it was 0.625 to 1.25 µg/mL.
Regarding Polymixin B, the MIC against E. coli (setting [4]) was in the range of 7.8 to 10 µg/mL; against S. Aureus (Monotherapy, S. Aureus, broth dilution, overnight incubation), 62.5 to 100.0 µg/mL; with P. Auregenosa (setting [5]), 3.125 to 5.0 µg/mL.

Values taken from patent US8357385B2, “Combination therapy for the treatment of bacterial infections” (Interface Biologics Inc., priority 2008, dated 2013).
